Patent US10806746B2, “Di- and tri-cationic glycosylated antitumor ether lipids, L-gucosylated gaels and rhamnose-linked gaels as cytotoxic agents against epithelial cancer cells and cancer stem cells” (The University of Manitoba, priority 2014, dated 2020)
Like-named read-outs stand apart in the source and are kept apart here.

Key:
Assay type in all cases: cell-based, human
MDA-MB-231 cells = assay: MTS viability assay, MDA-MB-231 breast cancer cells
Method: (§1) FIG. 2A. Effects of compounds 1-11 on the viability of MDA-MB231 cells. MDA-MB-231 cells were cultured in DMEM medium supplemented with 10% FBS. Equal numbers were dispersed into 96-well plates. After 24 h, the cells were incubated with compounds 1-11 (0-30 μM) for 48 h. At the end of the incubation, MTS reagent (20% vol/vol) was added and the plates were incubated for 1-4 h. The OD490 was read with a plate reader. Wells with media but no cells were treated in similar fashion and the values utilized as blank. The results represent the mean±standard deviation of 6 independent determinations.
as §1, with “2K.” for “2A.”, “1, 69-72” for “1-11”, “MDA-MB-231” for “MDA-MB231”, “1, 69-72” for “1-11 (0-30 μM)”
(§2) The cell lines were cultured from frozen stocks originally obtained from ATCC. MDA-MB-231, JIMT-1, DU145, U81, U251 cells were grown in DMEM medium. BT474, A2780s, A2780cp cells were grown in DMEM/F12 medium supplemented with 10% FBS. MiaPaCa2 was cultured in DMEM supplemented with 10% FBS and 2.5% horse serum. PC3 cells were cultured in F12K medium supplemented with 10% FBS. All the media were supplemented with penicillin/streptomycin.
(§3) The effects of the GAELs on the viability of the various epithelial cancer cell lines was determined as previously described. Briefly, equal numbers of the cells were dispersed into 96-well plates. After 24 h, the cells were incubated with the compounds (0-30 μM) for 48 h. At the end of the incubation, MTS reagent (20% vol/vol) was added and the plates were incubated for 1-4 h. The OD490 was read with a plate reader. Wells with media but no cells were treated in similar fashion and the values utilized as blank. The results represent the mean±standard deviation of 6 independent determinations.

DU145 cells = assay: MTS viability assay, DU145 prostate cancer cells
Method: as §1, with “2D.” for “2A.”, “DU145” for “MDA-MB231”, “DU145” for “MDA-MB-231”
as §1, with “2H. Effect” for “2A. Effects”, “1, 69-72” for “1-11”, “DU145” for “MDA-MB231”, “DU145” for “MDA-MB-231”, “1, 69-72” for “1-11 (0-30 μM)”
as §2, §3

JIMT-1 cells = assay: MTS viability assay, JIMT-1 breast cancer cells
Method: as §1, with “2B.” for “2A.”, “JIMT-1” for “MDA-MB231”, “JIMT-1” for “MDA-MB-231”
as §1, with “2J.” for “2A.”, “1, 69-72” for “1-11”, “JIMT-1” for “MDA-MB231”, “JIMT-1” for “MDA-MB-231”, “1, 69-72” for “1-11 (0-30 μM)”
as §2, §3

MiaPaCa2 cells = assay: MTS viability assay, MiaPaCa2 pancreas cancer cells
Method: as §1, with “2F.” for “2A.”, “MiaPaCa2” for “MDA-MB231”, “MiaPaCa2” for “MDA-MB-231”, “FBS and 2.5% horse serum.” for “FBS.”
as §1, with “2I.” for “2A.”, “1, 69-72” for “1-11”, “MiaPaCa2” for “MDA-MB231”, “MiaPaCa2” for “MDA-MB-231”, “FBS and 2.5% horse serum.” for “FBS.”, “1, 69-72” for “1-11 (0-30 μM)”
as §2, §3

PC3 cells = assay: MTS viability assay, PC3 prostate cancer cells; conditions: 48 h, MTS
Method: as §1, with “2E.” for “2A.”, “PC3” for “MDA-MB231”, “PC3” for “MDA-MB-231”, “F12K” for “DMEM”
as §2, §3

BT-474 cells = assay: MTS viability assay, BT-474 breast cancer cells; conditions: 48 h, MTS
Method: as §1, with “2C.” for “2A.”, “BT-474” for “MDA-MB231”, “BT-474” for “MDA-MB-231”, “DMEM/F12” for “DMEM”
as §2, §3

[1] = Table 1A, 48 h, read-out: CC50 values MD 231
[2] = Table 1B, 48 h, read-out: CC90 values MD 231
[3] = Table 1A, 48 h, read-out: CC50 values DU 145
[4] = Table 1B, 48 h, read-out: CC90 values DU 145
[5] = Table 1A, 48 h, read-out: CC50 values JIMT1
[6] = Table 1B, 48 h, read-out: CC90 values JIMT1
[7] = Table 1A, 48 h, read-out: CC50 values MiaPaCa2
[8] = Table 1B, 48 h, read-out: CC90 values MiaPaCa2
[9] = Table 1A, read-out: CC50 values PC3
[10] = Table 1B, read-out: CC90 values PC3
[11] = Table 1A, read-out: CC50 values BT474
[12] = Table 1B, read-out: CC90 values BT474
[13] = Table 5, 48 h, read-out: CC50 MDA-MB-231
[14] = Table 5, 48 h, read-out: CC90 MDA-MB-231
[15] = Table 5, 48 h, read-out: CC50 DU-145
[16] = Table 5, 48 h, read-out: CC90 DU-145
[17] = Table 5, 48 h, read-out: CC50 JIMT1
[18] = Table 5, 48 h, read-out: CC90 JIMT1
[19] = Table 5, 48 h, read-out: CC50 Mlapaca2
[20] = Table 5, 48 h, read-out: CC90 Mlapaca2

## CCCCCCCCCCCCCCCCOC[C@@H](CN)O[C@H]1O[C@H](CO)[C@@H](O)[C@H](O)[C@H]1N [Compound 7, 1-O-Hexadecyloxy-2R-(2′-amino-2′-deoxy-α-D-glucopyranosyl)-3-amino glycerol]
MDA-MB-231 cells; [1]
  CC50: 12 µM
MDA-MB-231 cells; [2]
  CC90: 17.5 µM
DU145 cells; [3]
  CC50: 17.5 µM
DU145 cells; [4]
  CC90: 25 µM
JIMT-1 cells; [5]
  CC50: 14 µM
JIMT-1 cells; [6]
  CC90: 19 µM
MiaPaCa2 cells; [7]
  CC50: 15 µM
MiaPaCa2 cells; [8]
  CC90: 28 µM
PC3 cells; [9]
  CC50: 9.5 µM
PC3 cells; [10]
  CC90: 17 µM
BT-474 cells; [11]
  CC50: 25 µM
BT-474 cells; [12]
  CC90: > 30 µM

## CCCCCCCCCCCCCCCCOC[C@H](CO[C@H]1O[C@@H](CN)[C@H](OCc2ccccc2)[C@@H](O)[C@@H]1N)OC [Compound 70, 1-O-Hexadecyl-2-O-methyl-3-O-(4′-benzyl-2′,6′-diamino-2′,6′-dideoxy-β-L-glucopyranosyl)-sn-glycerol]
MDA-MB-231 cells; [13]
  CC50: 4 µM
MDA-MB-231 cells; [14]
  CC90: 4.9 µM
DU145 cells; [15]
  CC50: 3.6 µM
DU145 cells; [16]
  CC90: 4.9 µM
JIMT-1 cells; [17]
  CC50: 2 µM
JIMT-1 cells; [18]
  CC90: 3.5 µM
MiaPaCa2 cells; [19]
  CC50: 5 µM
MiaPaCa2 cells; [20]
  CC90: 7.1 µM

## CCCCCCCCCCCCCCCCOCC(N)CO[C@H]1O[C@H](CO)[C@@H](O)[C@H](O)[C@H]1N (stereo partly drawn) [Compound 8, 1-O-Hexadecyloxy-2S/R-amino-3-(-2′-amino-2′-deoxy-α-D-glucopyranosyl)-glycerol]
MDA-MB-231 cells; [1]
  CC50: 6 µM
MDA-MB-231 cells; [2]
  CC90: 9 µM
DU145 cells; [3]
  CC50: 6 µM
DU145 cells; [4]
  CC90: 9 µM
JIMT-1 cells; [5]
  CC50: 5.5 µM
JIMT-1 cells; [6]
  CC90: 7.5 µM
MiaPaCa2 cells; [7]
  CC50: 8.5 µM
MiaPaCa2 cells; [8]
  CC90: 14 µM
PC3 cells; [9]
  CC50: 9 µM
PC3 cells; [10]
  CC90: 14 µM
BT-474 cells; [11]
  CC50: 15.5 µM
BT-474 cells; [12]
  CC90: 28 µM

## CCCCCCCCCCCCCCCCOC[C@H](CO[C@@H]1O[C@@H](CN)[C@H](OCc2ccccc2)[C@@H](O)[C@@H]1N)OC [Compound 72, 1-O-Hexadecyl-2-O-methyl-3-O-(4′-benzyl-2′,6′-diamino-2′,6′-dideoxy-α-L-glucopyranosyl)-sn-glycerol]
MDA-MB-231 cells; [13]
  CC50: 4 µM
MDA-MB-231 cells; [14]
  CC90: 4.9 µM
DU145 cells; [15]
  CC50: 3.6 µM
DU145 cells; [16]
  CC90: 4.9 µM
JIMT-1 cells; [17]
  CC50: 2 µM
JIMT-1 cells; [18]
  CC90: 3.5 µM
MiaPaCa2 cells; [19]
  CC50: 4.5 µM
MiaPaCa2 cells; [20]
  CC90: 7 µM

## CCCCCCCCCCCCCCCCOC[C@H](COC1O[C@H](CNCCCN)[C@@H](O)[C@H](O)[C@H]1N)OC (stereo partly shown) [Compound 74, 1-O-Hexadecyl-2-O-methyl-3-O-[6′-N-(3-aminopropyl)-2′,6′-diamino-2′,6′-dideoxy-glucopyranoside]-sn-glycerol]
MDA-MB-231 cells; Table 6, 48 h, read-out: MB-MDA-231 CC50
  CC50: 13.5 µM
MDA-MB-231 cells; Table 6, 48 h, read-out: MB-MDA-231 CC90
  CC90: 19.5 µM
DU145 cells; Table 6, 48 h, read-out: DU145 CC50
  CC50: 16.5 µM
DU145 cells; Table 6, 48 h, read-out: DU145 CC90
  CC90: 20 µM
JIMT-1 cells; Table 6, 48 h, read-out: JIMT1 CC50
  CC50: 13.5 µM
JIMT-1 cells; Table 6, 48 h, read-out: JIMT1 CC90
  CC90: 18.5 µM
MiaPaCa2 cells; Table 6, 48 h, read-out: MiaPaCa2 CC50
  CC50: 18.5 µM
MiaPaCa2 cells; Table 6, 48 h, read-out: MiaPaCa2 CC90
  CC90: > 20 µM
PC3 cells; Table 6, read-out: PC3 CC50
  CC50: 12.5 µM
PC3 cells; Table 6, read-out: PC3 CC90
  CC90: 20 µM
BT-474 cells; Table 6, read-out: BT474 CC50
  CC50: > 20 µM
BT-474 cells; Table 6, read-out: BT474 CC90
  CC90: > 20 µM

## CCCCCCCCCCCCCCCCOC[C@H](CO[C@H]1O[C@H](CN)[C@@H](O)[C@H](O)[C@H]1N1C(=O)c2ccccc2C1=O)OC [Compound 3, 1-O-Hexadecyl-2-O-methyl-3-O-(-2′-N-phthalimido-6′-amino-2′,6′-dideoxy-δ-D-glucopyranosyl)-sn-glycerol]
MDA-MB-231 cells; [1]
  CC50: 20 µM
MDA-MB-231 cells; [2]
  CC90: > 30 µM
DU145 cells; [3]
  CC50: > 30 µM
DU145 cells; [4]
  CC90: > 30 µM
JIMT-1 cells; [5]
  CC50: > 30 µM
JIMT-1 cells; [6]
  CC90: > 30 µM
MiaPaCa2 cells; [7]
  CC50: > 30 µM
MiaPaCa2 cells; [8]
  CC90: > 30 µM
PC3 cells; [9]
  CC50: 15 µM
PC3 cells; [10]
  CC90: 30 µM

## CCCCCCCCCCCCCCCCOC[C@H](CO[C@@H]1O[C@@H](CN)[C@H](O)[C@@H](O)[C@@H]1N)OC [Compound 71, 1-O-Hexadecyl-2-O-methyl-3-O-(2′,6′-diamino-2′,6′-dideoxy-α-L-glucopyranosyl)-sn-glycerol]
MDA-MB-231 cells; [13]
  CC50: 5.5 µM
MDA-MB-231 cells; [14]
  CC90: 7.5 µM
DU145 cells; [15]
  CC50: 6 µM
DU145 cells; [16]
  CC90: 8 µM
JIMT-1 cells; [17]
  CC50: 4 µM
JIMT-1 cells; [18]
  CC90: 6.5 µM
MiaPaCa2 cells; [19]
  CC50: 6 µM
MiaPaCa2 cells; [20]
  CC90: 15 µM
